Structures are written as SMILES. The source made the active and inactive calls. Bounds are passed on as bounds.

What all share (type): functional
Test [1] has as its target T1, Apoptotic protease-activating factor 1 (Homo sapiens, UniProt O14727).
T1 sequence (O14727 whole entry): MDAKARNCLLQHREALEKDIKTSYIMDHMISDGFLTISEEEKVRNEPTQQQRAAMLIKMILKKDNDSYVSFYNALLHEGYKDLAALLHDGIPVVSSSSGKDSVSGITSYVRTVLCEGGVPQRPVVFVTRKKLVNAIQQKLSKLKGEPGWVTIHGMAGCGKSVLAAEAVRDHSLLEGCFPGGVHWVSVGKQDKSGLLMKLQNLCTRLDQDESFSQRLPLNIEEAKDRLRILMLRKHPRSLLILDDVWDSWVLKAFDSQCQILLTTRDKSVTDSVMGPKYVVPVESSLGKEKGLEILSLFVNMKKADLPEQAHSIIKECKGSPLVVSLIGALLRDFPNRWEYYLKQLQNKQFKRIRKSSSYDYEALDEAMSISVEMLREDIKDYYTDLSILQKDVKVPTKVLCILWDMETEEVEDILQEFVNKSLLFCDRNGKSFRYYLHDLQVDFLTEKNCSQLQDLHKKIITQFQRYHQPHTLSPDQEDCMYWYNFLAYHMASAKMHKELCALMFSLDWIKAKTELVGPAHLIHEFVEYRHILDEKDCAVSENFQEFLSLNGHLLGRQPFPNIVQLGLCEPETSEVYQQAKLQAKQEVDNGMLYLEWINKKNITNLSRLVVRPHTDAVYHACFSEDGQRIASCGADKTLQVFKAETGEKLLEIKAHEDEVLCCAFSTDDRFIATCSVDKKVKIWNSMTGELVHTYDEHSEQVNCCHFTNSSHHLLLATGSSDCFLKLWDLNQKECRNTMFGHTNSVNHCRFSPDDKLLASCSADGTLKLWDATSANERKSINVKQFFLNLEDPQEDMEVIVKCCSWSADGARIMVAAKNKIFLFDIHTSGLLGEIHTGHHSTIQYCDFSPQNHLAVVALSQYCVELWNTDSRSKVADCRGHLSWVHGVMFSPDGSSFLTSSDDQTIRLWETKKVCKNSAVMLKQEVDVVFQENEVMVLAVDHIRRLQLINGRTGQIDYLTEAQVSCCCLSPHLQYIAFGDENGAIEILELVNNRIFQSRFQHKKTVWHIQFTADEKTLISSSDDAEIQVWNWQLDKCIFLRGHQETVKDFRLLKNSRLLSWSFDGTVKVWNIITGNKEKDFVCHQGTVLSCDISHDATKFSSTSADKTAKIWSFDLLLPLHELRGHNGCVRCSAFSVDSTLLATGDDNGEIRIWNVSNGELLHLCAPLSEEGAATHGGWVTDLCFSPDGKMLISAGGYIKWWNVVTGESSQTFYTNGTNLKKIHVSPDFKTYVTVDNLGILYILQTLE
In words: SAR analysis of small molecule inhibitors of Apaf-1 in a Fluorescent assay. Particulars: read-out: IC50_Mean.

The target in test [2] is Dual specificity tyrosine-phosphorylation-regulated kinase 1B (Homo sapiens, UniProt Q9Y463). The test can be described thus: Navigating the Kinome. Panel member name: DYRK1B.
Test [3] deals with Dual specificity mitogen-activated protein kinase kinase 2 (Homo sapiens, UniProt P36507). The test can be described thus: Navigating the Kinome. Panel member name: MAP2K2.
Test [4] deals with Dual specificity protein kinase CLK4 (Homo sapiens, UniProt Q9HAZ1).
Test [5] concerns the target Dual specificity tyrosine-phosphorylation-regulated kinase 1A (Homo sapiens, UniProt Q13627).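 Also: measured against DYRK1A as one member of a broad kinome profiling panel.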
Test [6] concerns the target Vascular endothelial growth factor receptor 2 (Homo sapiens, UniProt P35968).
The target in test [7] is Activated CDC42 kinase 1 (Homo sapiens, UniProt Q07912). In words: Navigating the Kinome. Panel member name: ACK1.
The target of test [8] is Activin receptor type-1 (Homo sapiens, UniProt Q04771). The test can be described thus: Navigating the Kinome. Panel member name: ACVR1.
In test [9] the target is Aurora kinase A (Homo sapiens, UniProt O14965).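 Also: value from the Navigating the Kinome kinase panel profiling, panel entry STK6.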
Test [10] deals with Mitogen-activated protein kinase kinase kinase kinase 2 (Homo sapiens, UniProt Q12851).
Test [11] addresses Focal adhesion kinase 1 (Homo sapiens, UniProt Q05397).
Test [12] addresses cAMP-dependent protein kinase catalytic subunit alpha (Homo sapiens, UniProt P17612).
In test [13] the target is Cyclin-dependent kinase 5 (Homo sapiens, UniProt Q00535).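 Also: CDK5 measured as one member of a kinase profiling panel.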
In test [14] the target is Casein kinase I isoform alpha (Homo sapiens, UniProt P48729).
Test [15] addresses Tyrosine-protein kinase ABL1 (Homo sapiens, UniProt P00519).
The target of test [16] is Protein kinase C theta type (Homo sapiens, UniProt Q04759). In words: Navigating the Kinome. Panel member name: PRKCQ.
The target in test [17] is Rho-associated protein kinase 1 (Homo sapiens, UniProt Q13464).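 Also: measured within a broad kinome-wide panel profiling many kinases.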
Test [18] concerns the target Leukocyte tyrosine kinase receptor (Homo sapiens, UniProt P29376). The test can be described thus: Navigating the Kinome. Panel member name: LTK.
The target in test [19] is Calcium/calmodulin-dependent protein kinase type II subunit alpha (Homo sapiens, UniProt Q9UQM7). In words: Navigating the Kinome. Panel member name: CAMK2A.
For test [20], the target named is ALK tyrosine kinase receptor (Homo sapiens, UniProt Q9UM73).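 Also: ALK tested as one member of a kinase panel screen.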
The target in test [21] is Vascular endothelial growth factor receptor 1 (Homo sapiens, UniProt P17948).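 Also: measured within a kinome-wide profiling panel, FLT1 as the panel member.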
Test [22] deals with Dual specificity protein kinase CLK2 (Homo sapiens, UniProt P49760).
In test [23] the target is Leucine-rich repeat serine/threonine-protein kinase 2 (Homo sapiens, UniProt Q5S007).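 Also: value from a broad kinome-wide panel profiling study in which LRRK2 was one of the kinases tested.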
Test [24] concerns the target Glycogen synthase kinase-3 beta (Homo sapiens, UniProt P49841).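 Also: value comes from a broad kinome profiling panel, with GSK3B as the panel member.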
Test [25] has as its target Macrophage colony-stimulating factor 1 receptor (Homo sapiens, UniProt P07333).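 Also: value comes from the Navigating the Kinome screening panel, CSF1R member.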
In test [26] the target is Dual specificity mitogen-activated protein kinase kinase 1 (Homo sapiens, UniProt Q02750). The test can be described thus: Navigating the Kinome. Panel member name: MAP2K1.
Test [27] addresses Platelet-derived growth factor receptor beta (Homo sapiens, UniProt P09619).
For test [28], the target named is Cyclin-dependent kinase 7 (Homo sapiens, UniProt P50613).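 Also: value comes from a kinome-wide kinase profiling panel in which CDK7 is one member.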
Test [29] has as its target Macrophage-stimulating protein receptor (Homo sapiens, UniProt Q04912). The test can be described thus: Navigating the Kinome. Panel member name: MST1R.
The target of test [30] is cAMP-dependent protein kinase catalytic subunit PRKX (Homo sapiens, UniProt P51817).
Test [31] addresses Fibroblast growth factor receptor 1 (Homo sapiens, UniProt P11362).
Test [32] deals with Serine/threonine-protein kinase D3 (Homo sapiens, UniProt O94806).
Test [33] concerns the target Mitogen-activated protein kinase kinase kinase kinase 4 (Homo sapiens, UniProt O95819).
Test [34] deals with Tyrosine-protein kinase receptor TYRO3 (Homo sapiens, UniProt Q06418).
Test [35] deals with Hepatocyte growth factor receptor (Homo sapiens, UniProt P08581).
In test [36] the target is Death-associated protein kinase 3 (Homo sapiens, UniProt O43293).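 Also: measured as one member of a kinome-wide profiling panel.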
Test [37] concerns the target Cyclin-dependent kinase 9 (Homo sapiens, UniProt P50750).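 Also: value from the CDK9 entry of a kinome-spanning kinase panel.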
Test [38] has as its target Glycogen synthase kinase-3 alpha (Homo sapiens, UniProt P49840).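 Also: GSK3A result taken from a broad kinome-wide kinase panel.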
Test [39] addresses T2, Neuropeptides B/W receptor type 1 (Homo sapiens, UniProt P48145).
T2 sequence (P48145 whole entry): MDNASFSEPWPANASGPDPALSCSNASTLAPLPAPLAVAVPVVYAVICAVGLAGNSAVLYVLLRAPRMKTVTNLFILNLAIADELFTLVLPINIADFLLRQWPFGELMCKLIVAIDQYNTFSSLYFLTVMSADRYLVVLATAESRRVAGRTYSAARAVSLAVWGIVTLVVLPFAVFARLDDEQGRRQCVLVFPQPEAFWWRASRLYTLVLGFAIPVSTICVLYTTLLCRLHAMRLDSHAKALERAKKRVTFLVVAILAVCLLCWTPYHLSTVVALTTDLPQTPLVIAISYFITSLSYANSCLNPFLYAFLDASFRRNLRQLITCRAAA
In words: GPR7 antagonist potency, late-stage follow-up, cell-based, fluorescence, dose response, set 5 (AID 588566).

The target of test [40] is T3, Melanin-concentrating hormone receptor 1 (Homo sapiens, UniProt Q99705). In words: Late-stage fluorescence-based counterscreen for antagonists of the G-protein coupled receptor 7 (GPR7): cell-based dose response assay to identify antagonists of the melanin-concentrating hormone receptor 1 (MCHR1) Set 5.
In test [41] the target is T3, Melanin-concentrating hormone receptor 1. The test can be described thus: Late-stage fluorescence-based counterscreen for antagonists of the G-protein coupled receptor 7 (GPR7): cell-based dose response assay to identify antagonists of the melanin-concentrating hormone receptor 1 (MCHR1) Set 6.
Test [42] concerns the target T2, Neuropeptides B/W receptor type 1. In words: GPR7 antagonist potency, late-stage follow-up, cell-based, fluorescence, dose response, set 6 (AID 588583).

T3 sequence (Q99705 whole entry): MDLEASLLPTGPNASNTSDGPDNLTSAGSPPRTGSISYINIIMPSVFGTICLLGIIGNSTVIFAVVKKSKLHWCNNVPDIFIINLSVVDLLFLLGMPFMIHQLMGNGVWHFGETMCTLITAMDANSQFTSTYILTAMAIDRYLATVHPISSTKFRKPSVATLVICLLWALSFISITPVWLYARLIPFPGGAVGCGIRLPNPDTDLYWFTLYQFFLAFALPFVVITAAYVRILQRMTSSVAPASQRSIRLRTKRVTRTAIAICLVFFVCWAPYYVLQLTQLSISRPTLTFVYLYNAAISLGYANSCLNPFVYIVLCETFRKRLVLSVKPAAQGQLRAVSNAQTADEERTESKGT
Chain of Fibroblast growth factor receptor 1 (P11362 whole entry): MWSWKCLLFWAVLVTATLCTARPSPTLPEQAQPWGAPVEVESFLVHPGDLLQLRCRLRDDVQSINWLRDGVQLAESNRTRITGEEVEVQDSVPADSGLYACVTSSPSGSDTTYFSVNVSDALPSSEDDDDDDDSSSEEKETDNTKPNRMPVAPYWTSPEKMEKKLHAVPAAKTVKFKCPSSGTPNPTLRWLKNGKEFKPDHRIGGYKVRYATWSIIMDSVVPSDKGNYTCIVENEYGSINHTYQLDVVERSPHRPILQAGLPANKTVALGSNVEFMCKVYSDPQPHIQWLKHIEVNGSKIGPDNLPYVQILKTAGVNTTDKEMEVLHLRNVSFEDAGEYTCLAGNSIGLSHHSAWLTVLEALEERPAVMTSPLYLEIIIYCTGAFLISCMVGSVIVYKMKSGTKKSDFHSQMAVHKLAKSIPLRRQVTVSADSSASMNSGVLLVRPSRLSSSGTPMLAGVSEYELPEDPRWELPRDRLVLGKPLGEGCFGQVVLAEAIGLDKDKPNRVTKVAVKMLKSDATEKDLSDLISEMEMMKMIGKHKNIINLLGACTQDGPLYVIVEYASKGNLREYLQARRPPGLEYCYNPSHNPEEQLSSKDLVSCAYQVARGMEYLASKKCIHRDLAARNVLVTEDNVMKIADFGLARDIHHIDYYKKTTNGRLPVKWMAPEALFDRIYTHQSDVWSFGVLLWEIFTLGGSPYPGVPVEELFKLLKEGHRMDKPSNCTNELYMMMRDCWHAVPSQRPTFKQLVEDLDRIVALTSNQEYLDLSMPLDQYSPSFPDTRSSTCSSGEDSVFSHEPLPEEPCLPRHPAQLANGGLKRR
Chain of Vascular endothelial growth factor receptor 1 (P17948 whole entry): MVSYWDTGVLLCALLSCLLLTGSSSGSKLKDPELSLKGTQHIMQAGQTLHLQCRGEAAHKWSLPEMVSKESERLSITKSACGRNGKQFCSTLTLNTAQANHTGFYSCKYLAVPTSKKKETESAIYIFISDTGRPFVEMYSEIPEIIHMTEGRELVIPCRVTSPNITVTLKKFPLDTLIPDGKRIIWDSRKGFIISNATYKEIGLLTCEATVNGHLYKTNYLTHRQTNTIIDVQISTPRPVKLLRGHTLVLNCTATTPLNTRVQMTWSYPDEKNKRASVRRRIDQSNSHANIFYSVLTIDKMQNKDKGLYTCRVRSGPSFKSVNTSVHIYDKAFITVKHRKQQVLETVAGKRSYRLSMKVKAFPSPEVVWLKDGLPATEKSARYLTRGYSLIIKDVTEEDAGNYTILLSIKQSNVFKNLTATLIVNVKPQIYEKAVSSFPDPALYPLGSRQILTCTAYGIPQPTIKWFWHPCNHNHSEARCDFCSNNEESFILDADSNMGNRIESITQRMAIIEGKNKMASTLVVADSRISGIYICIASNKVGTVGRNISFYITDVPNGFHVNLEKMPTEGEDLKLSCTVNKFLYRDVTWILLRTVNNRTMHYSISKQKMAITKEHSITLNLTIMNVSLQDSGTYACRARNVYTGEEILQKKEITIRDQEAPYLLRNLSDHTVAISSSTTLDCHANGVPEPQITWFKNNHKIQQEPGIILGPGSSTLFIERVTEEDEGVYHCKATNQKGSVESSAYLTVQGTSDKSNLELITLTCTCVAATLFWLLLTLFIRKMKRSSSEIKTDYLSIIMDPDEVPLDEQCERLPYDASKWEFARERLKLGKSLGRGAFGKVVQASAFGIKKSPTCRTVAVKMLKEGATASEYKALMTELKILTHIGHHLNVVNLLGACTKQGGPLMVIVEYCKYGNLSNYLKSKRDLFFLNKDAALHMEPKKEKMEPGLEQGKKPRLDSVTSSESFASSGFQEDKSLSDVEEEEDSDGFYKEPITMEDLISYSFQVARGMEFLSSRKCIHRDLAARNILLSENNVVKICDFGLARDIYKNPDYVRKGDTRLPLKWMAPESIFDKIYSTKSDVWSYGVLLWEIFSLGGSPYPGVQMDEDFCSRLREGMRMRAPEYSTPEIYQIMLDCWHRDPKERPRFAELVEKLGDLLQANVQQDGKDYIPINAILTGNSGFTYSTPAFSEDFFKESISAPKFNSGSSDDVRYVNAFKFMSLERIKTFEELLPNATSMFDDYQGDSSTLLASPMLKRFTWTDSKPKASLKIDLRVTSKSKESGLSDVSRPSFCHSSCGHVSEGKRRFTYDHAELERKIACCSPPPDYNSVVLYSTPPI
Chain of Cyclin-dependent kinase 9 (P50750 whole entry): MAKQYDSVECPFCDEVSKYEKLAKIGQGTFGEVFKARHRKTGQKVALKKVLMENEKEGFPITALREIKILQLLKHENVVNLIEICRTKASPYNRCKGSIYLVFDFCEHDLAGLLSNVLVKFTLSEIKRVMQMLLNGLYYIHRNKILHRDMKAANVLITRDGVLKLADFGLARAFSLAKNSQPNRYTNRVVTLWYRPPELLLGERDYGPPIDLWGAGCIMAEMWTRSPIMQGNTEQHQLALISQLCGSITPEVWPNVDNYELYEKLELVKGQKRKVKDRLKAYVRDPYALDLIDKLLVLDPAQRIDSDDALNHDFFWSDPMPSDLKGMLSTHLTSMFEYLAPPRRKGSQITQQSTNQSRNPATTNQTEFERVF
Chain of Hepatocyte growth factor receptor (P08581 whole entry): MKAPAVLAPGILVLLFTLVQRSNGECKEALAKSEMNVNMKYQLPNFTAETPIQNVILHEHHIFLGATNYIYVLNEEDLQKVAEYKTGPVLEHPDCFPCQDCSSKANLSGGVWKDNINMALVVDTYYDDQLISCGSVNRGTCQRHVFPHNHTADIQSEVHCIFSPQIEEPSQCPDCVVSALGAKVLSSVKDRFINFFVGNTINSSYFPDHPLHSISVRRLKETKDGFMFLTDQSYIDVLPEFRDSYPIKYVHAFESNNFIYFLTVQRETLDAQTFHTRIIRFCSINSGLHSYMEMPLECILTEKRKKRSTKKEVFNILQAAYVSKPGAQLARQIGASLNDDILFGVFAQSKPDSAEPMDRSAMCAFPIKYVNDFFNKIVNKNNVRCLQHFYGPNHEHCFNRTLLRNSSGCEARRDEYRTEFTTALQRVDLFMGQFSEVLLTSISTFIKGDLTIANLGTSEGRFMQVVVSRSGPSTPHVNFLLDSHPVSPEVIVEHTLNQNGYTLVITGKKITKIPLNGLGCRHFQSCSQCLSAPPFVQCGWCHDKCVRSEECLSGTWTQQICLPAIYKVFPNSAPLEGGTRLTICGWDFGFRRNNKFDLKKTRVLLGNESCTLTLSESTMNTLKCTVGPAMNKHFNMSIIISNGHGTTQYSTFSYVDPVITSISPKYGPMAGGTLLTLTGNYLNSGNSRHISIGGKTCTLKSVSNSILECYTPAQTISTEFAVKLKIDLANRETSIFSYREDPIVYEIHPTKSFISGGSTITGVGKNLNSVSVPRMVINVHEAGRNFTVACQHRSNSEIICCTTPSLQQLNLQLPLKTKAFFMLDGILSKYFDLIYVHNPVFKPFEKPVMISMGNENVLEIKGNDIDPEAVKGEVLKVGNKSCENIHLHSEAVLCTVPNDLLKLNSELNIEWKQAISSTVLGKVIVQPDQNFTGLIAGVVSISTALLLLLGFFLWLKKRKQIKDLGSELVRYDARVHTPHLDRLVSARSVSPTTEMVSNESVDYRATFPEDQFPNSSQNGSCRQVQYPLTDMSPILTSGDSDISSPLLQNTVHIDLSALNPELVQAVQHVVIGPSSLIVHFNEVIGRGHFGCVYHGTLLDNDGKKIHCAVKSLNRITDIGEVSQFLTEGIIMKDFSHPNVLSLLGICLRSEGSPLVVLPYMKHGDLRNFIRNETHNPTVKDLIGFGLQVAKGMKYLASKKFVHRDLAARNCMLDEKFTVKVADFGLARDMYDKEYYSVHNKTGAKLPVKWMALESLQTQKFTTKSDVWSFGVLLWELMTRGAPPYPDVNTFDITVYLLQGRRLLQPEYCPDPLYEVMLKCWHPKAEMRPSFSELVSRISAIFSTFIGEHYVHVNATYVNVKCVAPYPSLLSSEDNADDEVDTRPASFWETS
Chain of Dual specificity mitogen-activated protein kinase kinase 2 (P36507 whole entry): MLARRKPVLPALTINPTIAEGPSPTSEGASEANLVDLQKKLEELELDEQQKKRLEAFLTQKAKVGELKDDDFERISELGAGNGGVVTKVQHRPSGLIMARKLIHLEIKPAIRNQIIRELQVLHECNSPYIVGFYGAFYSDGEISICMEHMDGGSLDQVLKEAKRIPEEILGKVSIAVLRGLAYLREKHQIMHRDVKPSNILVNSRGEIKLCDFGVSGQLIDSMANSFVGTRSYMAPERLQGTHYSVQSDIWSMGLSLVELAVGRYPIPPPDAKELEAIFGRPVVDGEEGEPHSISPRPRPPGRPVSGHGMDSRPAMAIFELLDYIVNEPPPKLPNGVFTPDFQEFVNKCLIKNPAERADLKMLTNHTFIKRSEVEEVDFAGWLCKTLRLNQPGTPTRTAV
Chain of cAMP-dependent protein kinase catalytic subunit PRKX (P51817 whole entry): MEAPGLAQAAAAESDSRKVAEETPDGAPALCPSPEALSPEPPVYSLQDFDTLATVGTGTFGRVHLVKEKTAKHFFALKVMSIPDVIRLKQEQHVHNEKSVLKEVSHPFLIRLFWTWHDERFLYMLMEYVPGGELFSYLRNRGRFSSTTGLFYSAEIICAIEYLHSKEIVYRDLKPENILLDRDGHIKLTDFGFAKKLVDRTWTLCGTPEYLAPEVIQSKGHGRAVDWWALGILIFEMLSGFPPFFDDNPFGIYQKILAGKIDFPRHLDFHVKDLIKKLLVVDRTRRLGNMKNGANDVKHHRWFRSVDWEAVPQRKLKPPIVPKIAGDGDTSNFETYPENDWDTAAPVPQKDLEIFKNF

For the compound `O=C(Nc1ccc2[nH]c(-c3cccs3)nc2c1)c1cccs1`, the IC50 in [1] was > 100 µM (inactive).
For `Nc1n[nH]c2cccc(-c3ccc(F)cc3)c12`, the inhibition constant Ki was 6.31 µM (active) in test [2]; 1.26 µM (active) in test [3]; 0.0398 µM (active) in [4]; 25.1 µM (active) in test [5]; 12.6 µM (active) in test [6]; 15.8 µM (active) in [7]. The inhibition constant Ki in test [8] is 1 µM (active); in test [9] it was > 39.8 µM (inactive); in [10], 31.6 µM (active); in test [11], 20 µM (active); in test [12], 0.0794 µM (active); in [13], 20 µM (active). The Ki is 7.94 µM (active) in [14]; 15.8 µM (active) in test [15]; 20 µM (active) in test [16]; 0.501 µM (active) in test [17]; 31.6 µM (active) in [18]; 25.1 µM (active) in test [19]. The Ki in [20] was 63.1 µM (active); in test [21] it was 79.4 µM (active); in test [22] it was 2 µM (active); in test [23], 1.26 µM (active); in [24], 20 µM (active); in test [25] it was 7.94 µM (active). Further, the inhibition constant (Ki) in test [26] was 0.251 µM (active); in [27], 6.31 µM (active); in test [28], 20 µM (active); in [29] it was 63.1 µM (active); in test [30], 0.501 µM (active); in test [31] it was 63.1 µM (active). Further, the Ki is 79.4 µM (active) in [32]; 20 µM (active) in test [33]; 39.8 µM (active) in test [34]; 31.6 µM (active) in test [35]; 39.8 µM (active) in [36]; > 63.1 µM (inactive) in test [37]. In test [38], the inhibition constant Ki is 20 µM (active).
`N#CC(c1cccnc1)c1cnn(Cc2cccc3ccccc23)c(=O)c1Cl` (configuration not stated): the figures for the IC50 in [39] and in [40] were 1.18 µM (active) and 3.67 µM (active), respectively.
In the case of `CCC(C#N)(c1ccccc1)c1c(Br)cnn(Cc2cccc3ccccc23)c1=O` (configuration not stated), the IC50 in [41] and in test [42] was 8.2 µM (active) throughout.

(Values after ChEMBL document CHEMBL1201862, “PubChem BioAssay data set” (2004).)
